In paper PMC10342533, “Novel Tetrazole Derivatives Targeting Tubulin Endowed with Antiproliferative Activity against Glioblastoma Cells” (International Journal of Molecular Sciences, 2023):
Values after ≈ are worked out from the molar mass of the structure shown.

Legend:
[1] = Aqueous solubility, shake-flask method, phosphate buffer pH 7.4; assay type: physicochemical; settings: thermodynamic from solid, phosphate buffer pH 7.4, shake-flask, mean ± SD of three experiments
Method: The aqueous solubility of tetrazole derivatives was determined by the shaking flask methodology in phosphate buffer at pH 7.4, microfiltration, and quantification of the saturated solutions via UV spectroscopy. […] The introduction of polar groups on the 3-indole position was favorable since the most soluble compounds were the oximes 16–19 (38–53 µg/mL), followed by the carbaldehyde series 12–15 (33–45 µg/mL), and the carbonitrile derivatives (25–40 µg/mL), whereas the unsubstituted indoles 8–11 were the least soluble series (19–35 µg/mL).
The aqueous solubility of the compounds was determined using the saturation shake-flask method. First, calibration lines at the maximum wavelength of absorbance were determined for each compound. Then, 5 mg of each compound was suspended in 500 µL of pH 7.4 buffer, and the resulting mixture was shaken for 72 h at room temperature and filtrated over a […] filter to remove the insoluble fraction. The concentration of the compound in the supernatant (saturated solution) was determined by measuring UV absorbance at the maximum wavelength of absorbance and interpolation in the calibration line. A Helios Alfa Spectrophotometer was used for the UV measurements. The aqueous solubility values are given as the average of three independent experiments.

[2] = test system: HeLa (cervix epithelioid carcinoma); assay: Cell growth inhibition, MTT assay, HeLa; assay type: cell-based; settings: Homo sapiens
Method: (§1) The ability of the synthesized compounds to inhibit the cell proliferation of human cancer cell lines was assayed by measuring cell viability through the use of the MTT method 72 h after treatment. For this purpose, representative cell lines of the most frequent kinds of cancer were selected, including the following: HeLa (cervix epithelioid carcinoma), MCF7 (breast adenocarcinoma), U87 MG (glioblastoma), T98G (temozolomide resistant glioblastoma), HepG2 (hepatocellular carcinoma), HCT8 (colorectal carcinoma), and HT-29 (colon adenocarcinoma).
(§2) The cell lines were obtained from ATTC (Manassas, VA, USA). […] The cells were periodically tested for Mycoplasma infection by using a MycoAlert kit (Lonza, Norwest, Australia), and only Mycoplasma-free cells were used in the experiments.
(§3) Then, every compound was added (10 µL/well) to a final concentration of 10 µM. Untreated cells were used as negative controls. The antiproliferative activity of compounds was measured 72 h after drug exposure through the MTT assay. […] For this purpose, compounds were used at different concentrations, ranging from 10^−10 to 10^−2 M. Measurements were performed in triplicate, and each experiment was repeated three times. The IC50 values were determined using Origin software (version 9.6, OriginLab, Washington, DC, USA).

[3] = test system: U87 MG (glioblastoma); assay: Cell growth inhibition, MTT assay, U87 MG; assay type: cell-based; settings: Homo sapiens, U-87 MG
Method: as §1, §2, §3

[4] = test system: HepG2 (hepatocellular carcinoma); assay: Cell growth inhibition, MTT assay, HepG2; assay type: cell-based; settings: Homo sapiens
Method: as §1, §2, §3

[5] = test system: HCT8 (colorectal carcinoma); assay: Cell growth inhibition, MTT assay, HCT8; assay type: cell-based; settings: Homo sapiens
Method: as §1, §2, §3

[6] = test system: U87 MG cells; assay: Apoptotic cell death quantification, Annexin V-FITC/PI, U87 MG; assay type: cell-based, human; settings: 72 h, 100 nM; for Necrotic cells: PI+ AnV−; for Live cells: PI− AnV−
Method: To characterize the cell death mechanism induced by the representative compounds 10, 12, or 14 at 100 nM on HeLa, MCF7, and U87 MG cells, dual-channel flow cytometry studies were carried out for cells in the absence (negative control) or presence of compounds 72 h after treatment. Fluorescein isothiocyanate-labeled Annexin V (FITC-AnV) and propidium iodide (PI) were used for double staining. Regarding their response to AnV and PI, cells can be identified as viable (PI−, AnV−), early apoptotic (PI−, AnV+), late apoptotic or secondary necrotic (PI+, AnV+), or necrotic (PI+, AnV−). The translocation of the phosphatidylserine from the inner to the outer cell membrane causes the response of apoptotic cells to AnV, whereas only cells suffering some kind of membrane disintegration (late apoptotic or necrotic cells) allow PI permeation.
Following the manufacturer’s guidelines, an Annexin V-FITC/PI apoptosis detection kit (Immunostep, Salamanca, Spain) was used to quantify HeLa, MCF7, or U87 MG cells. Cells were seeded in 12-well plates (5·10^4 cells/mL, 1 mL/well) and incubated in complete DMEM medium (see above) at 37 °C and 5% CO2 atmosphere for 24 h. Then, the cells were treated with selected compounds (10, 12, or 14) at 100 nM, and untreated cells were used as negative controls. Then, 72 h after incubation, the cells were harvested, centrifugated, resuspended in the Annexin V binding buffer, and incubated in darkness with Annexin V-FITC/PI for 15 min at room temperature. The samples were analyzed by using a BD Accuri™ C6 Plus Flow Cytometer (BD Biosciences), and acquired data were analyzed via BD Accuri™ C6 Software (version 1.0.264.21).

[7] = test system: microtubule network of HeLa cells; assay: Immunofluorescence confocal microscopy of microtubule network, HeLa; assay type: cell-based, human; settings: 24 h, 100 nM, α-tubulin immunofluorescence
Method: To elucidate if the interaction of the compounds with tubulin inferred from the in vitro TPI experiments has consequences on cellular microtubules, we studied the effect of representative compounds on the microtubule network of HeLa, MCF7, and U87 MG cells 24 h after treatment via the use of immunofluorescence confocal microscopy through α-tubulin and nuclei labeling.
HeLa, MCF7, and U87 MG cells (8·10^4 cells/mL) were grown on 0.01% poly-L-lysine pre-coated square glass coverslips (22 mm^2), deposited on 6-well plates (1 coverslip/well), and incubated in complete DMEM medium (see above) at 37 °C and 5% CO2 atmosphere for 24 h. Then, the cells were incubated for 24 h in the presence or absence (negative controls) of selected compounds (10, 12, or 14) at 100 nM. After drug treatment incubation, medium was removed, and coverslips were washed three times with PBS, fixed with 4% formaldehyde in PBS for 10 min, permeabilized with 0.5% Triton X-100, (Sigma-Aldrich, St. Louis, MO, USA) in PBS for 90 s at 4 °C, blocked with 10% BSA in PBS for 30 min, and washed with PBS four times. The coverslips were incubated for 1 h with anti-α-tubulin mouse monoclonal antibody (Sigma-Aldrich, St. Louis, MO, USA), diluted 1:200 in PBS containing 3% BSA, washed four times with PBS, and then incubated in darkness with the fluorescent secondary antibody Alexa Fluor 488 goat anti-mouse IgG (Molecular Probes, Invitrogen, Eugenen, OR, USA) and diluted 1:400 in PBS containing 1% BSA for 1.5 h. The coverslips were washed four times with PBS, and a drop of ProLong™ Gold Antifade Mountant containing DAPI (ThermoFisher, Waltham, MA, USA) was added for cell nuclei staining. The samples were analyzed via confocal microscopy, which was performed by using a LEICA SP5 microscope DMI-6000V model coupled to a LEICA LAS AF software computer.

[8] = HCT-8, 72 h after drug exposure

Row | solubility at 72 h [1] [µg/mL] | IC50 ([2]; 72 h after drug exposure) [nM] | IC50 ([2]; mean ± SD, Table S1) [nM] | IC50 ([3]; 72 h after drug exposure) [nM] | IC50 ([3]; mean ± SD, Table S1) [nM] | IC50 ([4]; 72 h after drug exposure) [nM] | IC50 ([4]; mean ± SD, Table S1) [nM] | IC50 [5, 8] [nM] | IC50 ([5]; HCT-8, mean ± SD, Table S1) [nM] | SMILES | apoptotic response [6] | Necrotic cells [6] | Live cells [6] | effect on microtubule network [7]
1 | 26.1 ± 0.2 (≈ 73.1 µM) | 39 | 39.3 ± 0.2 | 22 | 22.2 ± 0.1 | 37 | 37.1 ± 0.2 | 40 | – | CSc1cc(-c2nnnn2-c2ccc3c(ccn3C)c2)cc(Cl)n1 [Compound 10, 5-(5-(2-chloro-6-(methylsulfanyl)pyridin-4-yl)-1H-tetrazol-1-yl)-1-methyl-1H-indole] | 70–74% | 15–19% | 9–15% | severe microtubule network disruption
2 | 36.9 ± 0.3 (≈ 95.9 µM) | 24 | 24.2 ± 0.1 | 12 | – | 31 | 31.1 ± 0.3 | 29 | 29.4 ± 0.2 | CSc1cc(-c2nnnn2-c2ccc3c(c2)c(C=O)cn3C)cc(Cl)n1 [Compound 14, 5-(5-(2-chloro-6-(methylsulfanyl)pyridin-4-yl)-1H-tetrazol-1-yl)-1-methyl-1H-indole-3-carbaldehyde] | 70–74% | 15–19% | 9–15% | severe microtubule network disruption
3 | 33.1 ± 0.3 (≈ 88.7 µM) | 36 | 36.4 ± 0.4 | 17 | 17.1 ± 0.1 | 36 | 36.4 ± 0.2 | 40 | 40.1 ± 0.3 | Cn1cc(C=O)c2cc(-n3nnnc3-c3cc(Cl)nc(Cl)c3)ccc21 [Compound 12, 5-(5-(2,6-dichloropyridin-4-yl)-1H-tetrazol-1-yl)-1-methyl-1H-indole-3-carbaldehyde] | 70–74% | 15–19% | 9–15% | severe microtubule network disruption
